Test results published in paper PMC10254852, “Design, Synthesis and Anticancer Evaluation of Nitroimidazole Radiosensitisers” (Molecules, 2023).
≈ marks a conversion by molar mass, not a printed value. Like-named read-outs stand apart in the source and are kept apart here.

Columns and labels:
[1] = Stability in αMEM culture medium (HPLC after 24 h); format: physicochemical; conditions: after 24 h incubation at 37 °C
Protocol: The stability of the same solutions after 24 h incubation at 37 °C was measured by HPLC analysis.

HCT116/54C cells [2] = assay: In vitro radiosensitisation under anoxia, clonogenic survival; format: cell-based, human; conditions: compound 1 mM, radiation dose for 1% survival/radiation dose for 1% survival with compound, mean ± SEM
Protocol: Next, we evaluated in vitro radiosensitisation by using a representative subset of nitroimidazole compounds in HCT116/54C cells with a clonogenic survival endpoint. Radiosensitisation was determined by treating cells under anoxia with a range of radiation doses alone and with compounds at equimolar doses (1 mM). Sensitiser enhancement ratios (SER) were calculated as the ratio of radiation dose required for 1% clonogenic survival alone or with compound (Table 3).
Cells were seeded onto 96-well plates at 10^5 cells per well and allowed to attach for 2 h. […] The plates were irradiated (Eldorado 78 ^60Co teletherapy unit, ~2 Gy/min) with 15 Gy under anoxia at room temperature for SR experiments. A metal wedge placed on the top of the metal chamber was used to achieve a graduated radiation dose across the plate, varying from 7 to 29 Gy, calibrated by Fricke dosimetry with ammonium thiocyanate as previously described for SER experiments. The control plate (compound alone, no radiation) was left inside the anaerobic chamber at room temperature during the irradiation period. After treatment, the cells were trypsinized and suspended in usual media + 1% penicillin-streptomycin (ThermoFisher Scientific), and 10-fold serial dilutions were plated for clonogenic survival. After 10 days, plates were stained with methylene blue (2 g/L in EtOH/H2O, 1:1 v/v) and colonies with more than 50 cells were counted. The surviving fraction (SF) was determined as: SF = PE(irradiated)/PE(control) where the plating efficiency (PE) = (No. of colonies)/(No. of cells plated). SF was plotted against radiation dose. Survival ratios (SR) were calculated: SR = (cell survival with radiation)/(cell survival with drug + radiation). Sensitizer enhancement ratios (SER) were calculated: SER = (radiation dose for 1% survival without compound)/(radiation dose for 1% survival with compound).

FaDu cells = assay: In vitro cytotoxicity, 4 h exposure oxic/anoxic, 5-day regrowth, sulforhodamine B; format: cell-based; conditions: for IC50: Homo sapiens, 4 h exposure, mean ± SEM; for HCR: IC50(oxic)/IC50(anoxic)
Text: (§1) This allowed derivation of hypoxia cytotoxicity ratios (HCR) as IC50(oxic)/IC50(anoxic) in an HCT116 subclone HCT116/54C and two HNSCC cell lines, FaDu and UT-SCC-74B (Table 2).
(§2) HCT116/54C is an HCT116 subline that originated from a mixed culture with UT-SCC-54C cells, which was supplied alongside UT-SCC-74B by Prof. Bradly Wouters (University Health Network, Toronto, ON, Canada). HCT116/54C and UT-SCC-74B cells were passaged in minimum essential media (MEM, ThermoFisher Scientific, Waltham, MA, USA) with 10% foetal calf serum (FCS, Moregate Biotech, Hamilton, New Zealand), 4.5 mg/mL D-glucose (Sigma-Aldrich, St. Louis, MO, USA) and 20 mM HEPES (Sigma-Aldrich). FaDu cells were sourced from American Type Culture Collection and cultured in αMEM (ThermoFisher Scientific) with 10% FCS. All cell lines were confirmed mycoplasma-free by PlasmoTest (InvivoGen, San Diego, CA, USA) and were derived from STR-authenticated cryopreserved stocks. Log-phase cells were seeded into 96-well plates at 800 cells/well for HCT116/54C and 1500 cells/well for FaDu. […] After drug washout, cells were grown and stained as for the oxic IC50 assays. The hypoxic cytotoxicity ratio HCR was determined as HCR = IC50(oxic)/IC50(anoxic).

[3] = Solubility in αMEM culture medium (HPLC of saturated solutions); format: physicochemical; conditions: αMEM culture medium with 5% foetal calf serum and 1% DMSO, plasma or biological fluid, kinetic from dmso stock, α-MEM culture medium containing 5% foetal calf serum, 37 °C
HCT116/54C cells [4] = assay: In vitro cytotoxicity, 4 h exposure oxic/anoxic, 5-day regrowth, sulforhodamine B; format: cell-based, human; conditions: HCT116/54C; for HCR: IC50(oxic)/IC50(anoxic); for IC50: Homo sapiens, 4 h exposure, mean ± SEM, n = 3–4
Text: as §1, §2

UT-SCC-74B cells = assay: as above; format: cell-based, human; conditions: for IC50: Homo sapiens, 4 h exposure, mean ± SEM; for HCR: IC50(oxic)/IC50(anoxic)
Text: as §1, §2

[5] = set-up: method as in PMID 29253343; conditions: comparison values for earlier alcohols; cited from earlier work
HCT116/54C tumours = assay: Tumour radiosensitisation: ex vivo clonogenic assay; format: in vivo, NIH-III mice; conditions: for Sensitisation Ratio: 2.2 mmol/kg i.v. 5 min prior to 10 Gy radiation, surviving fraction after radiation/surviving fraction after drug + radiation; for enhancement of tumour killing of radiotherapy (RAD vs drug + RAD): 2.2 mmol/kg i.v. + 10 Gy, one-way ANOVA
Protocol: (§3) Specific pathogen-free six- to eight-week-old female NIH-III mice, bred in the Vernon Jansen Unit, University of Auckland, were used for animal experiments. Animals had ad libitum access to food and water and were maintained in microisolator cages on a 12 h light/dark cycle. All treatments were administered by i.v. injection at a dose of 2.2 mmol/kg and injection volume of 10 mL/kg. Compounds 2, 34 and 38 were administered as solutions in saline containing 1% DMSO or for 9–12 as solutions in saline containing 2 molar equivalents of NaHCO3. Control animals received an i.v. injection of saline at 10 mL/kg. All animal experiments were conducted under the auspices of the University of Auckland Animal Ethics Committee (approval 1781).
(§4) Compounds were evaluated for in vivo radiosensitisation of hypoxic cells in HCT116/54C and UT-SCC-74B human tumour xenografts using clonogenic survival as an endpoint, using previously report methods. Tumours were grown subcutaneously on the flanks of NIH-III mice by injecting 5 × 10^6 HCT116/54C cells or UT-SCC-74B cells. Once tumours reached a volume of approximately 250 mm^3, mice were randomly assigned to 4 treatment groups and treated with: (A) vehicle control, (B) 10 Gy RAD only, (C) sensitiser only, or (D) sensitiser given before 10 Gy RAD. Drugs were administered as a single i.v. dose at 2.2 mmol/kg. […] Tumours were excised 18 h after treatment, and tumour cells were dissociated enzymatically and plated to determine the number of surviving (clonogenic) cells per gram of tumour tissue. SF and SR were calculated as described above. Statistical significance of drug effects was tested using one-way ANOVA with Sidak tests for multiple comparisons vs. radiation alone (Table 5).

UT-SCC-74B tumours = assay: as above; format: in vivo, NIH-III mice; conditions: for Sensitisation Ratio: 2.2 mmol/kg i.v. 5 min prior to 10 Gy radiation, surviving fraction after radiation/surviving fraction after drug + radiation; for enhancement of tumour cell killing by radiotherapy (RAD vs drug + RAD): 2.2 mmol/kg i.v. + 10 Gy, one-way ANOVA
Protocol: as §3, §4

[6] = tested on: HCT116/54C tumour xenografts; assay: Tumour growth inhibition in combination with radiation; format: in vivo, NIH-III mice; conditions: HCT116/54C tumours, fractionated radiation, p < 0.05
Protocol: as §3
Compounds were evaluated for their ability to inhibit tumour growth in combination with a single dose of radiation (10 Gy) in HCT116/54C or UT-SCC-74B tumour xenografts on the backs of NIH-III mice. In addition, a fractionated radiation schedule (5 Gy on Days 1, 7 and 14) was explored in HCT116/54C tumour xenografts. Mice were randomly assigned to 4 treatment groups and treated with: (A) vehicle control, (B) 10 Gy RAD only, (C) sensitiser only, or (D) sensitiser given 10 min before 10 Gy RAD. Drugs were administered by i.v. injection at 2.2 mmol/kg either as a single dose or three doses on Days 1, 7 and 14 in the fractionated study. Treatment commenced when the average tumour size reached approximately 250 mm^3, and tumour size was measured until study endpoint. Mice were placed in a custom-built lead-shielded jig that allowed irradiation of the whole tumour but shielded the mouse from radiation. Survival analysis represented the time taken for tumours to increase in relative tumour volume by 4× from the start of treatment (RTV^4). The significance of differences in activity between the groups was assessed by log-rank with Holm–Sidak multiple comparison analysis.

[7] = set-up: method as in PMID 29253343; conditions: NIH-III mice, 2.2 mmol/kg i.v., cited from earlier work; for Cmax: read-out: Plasma Cmax
[8] = anoxic, n = 3–4, read-out: IC50 Anoxic
[9] = oxic, n = 3–4, read-out: IC50 Oxic
[10] = drug alone 2.2 mmol/kg i.v., relative to untreated tumours

SMILES | % Stability in αMEM [1] [%] | melting point [°C] | SER at 1 mM (HCT116/54C cells [2]) | IC50 (FaDu cells; [8]) [mM] | IC50 (FaDu cells; [9]) [mM] | HCR (FaDu cells) | solubility [3] [mM] | HCR (HCT116/54C cells [4]) | IC50 (HCT116/54C cells [4]; anoxic, read-out: IC50 Anoxic) [mM] | IC50 (HCT116/54C cells [4]; oxic, read-out: IC50 Oxic) [mM] | IC50 (UT-SCC-74B cells; [8]) [mM] | IC50 (UT-SCC-74B cells; [9]) [mM] | HCR (UT-SCC-74B cells) | also measured
O=[N+]([O-])c1nccn1CS(=O)(=O)NCC(O)CO (stereo not shown) [Compound 13, N-(2,3-Dihydroxypropyl)-1-(2-nitro-1H-imidazol-1-yl)methanesulfonamide] | 99.3 | 127 to 129 | 1.00 ± 0.00 | 4.3 ± 0.3 | 8.7 ± 1.1 | 2.0 | 110 (≈ 30.8 mg/mL) | 3.5 | 4.1 ± 0.1 | 14.5 ± 2.9 | 2.6 ± 0.1 | 10.3 ± 1.7 | 4.0 | 
O=[N+]([O-])c1cncn1CS(=O)(=O)NCCO [Compound 7] |  |  | 1.41 ± 0.02 | 1.4 ± 0.02 | 5.4 ± 0.7 | 4.0 |  | 3.3 | 1.4 ± 0.1 | 4.6 ± 0.3 | 1.3 ± 0.04 | 4.2 ± 0.9 | 3.3 | aqueous solubility [5]: 23 mM (≈ 5.76 mg/mL)
O=[N+]([O-])c1nccn1CS(=O)(=O)NC(CO)C(O)CO (stereo not shown) [Compound 14, 1-(2-Nitro-1H-imidazol-1-yl)-N-(1,3,4-trihydroxybutan-2-yl)methanesulfonamide] | 98.5 | 128 to 131 | 1.00 ± 0.00 | 7.9 ± 1.1 | 5.3 ± 1.1 | 0.67 | 95.8 (≈ 29.7 mg/mL) | 1.3 | 12.6 ± 0.5 | 16.4 ± 3 |  |  |  | 
O=[N+]([O-])c1nccn1CCNS(=O)(=O)CCO [Compound 17, 2-Hydroxy-N-(2-(2-nitro-1H-imidazol-1-yl)ethyl)ethane-1-sulfonamide] | 100.0 | 124 to 127 | 1.35 ± 0.02 | 2.8 ± 0.6 | > 18 | >6.4 | > 101 | >5.3 | 3.2 ± 0.2 | > 17 | 2.9 ± 0.5 | > 20 | >6.8 | 
O=C(Cn1ccnc1[N+](=O)[O-])NCCO [Compound 2, etanidazole, reference compound] |  |  | 1.18 ± 0.00 | 1.5 ± 0.3 | > 20 | >13.3 |  | >14.8 | 1.7 ± 0.2 | > 25 |  |  |  | Sensitisation Ratio (HCT116/54C tumours): 3.34; enhancement of tumour killing of radiotherapy (RAD vs drug + RAD) (HCT116/54C tumours): significantly enhanced the tumour killing of radiotherapy; Sensitisation Ratio (UT-SCC-74B tumours): 8.94; enhancement of tumour cell killing by radiotherapy (RAD vs drug + RAD) (UT-SCC-74B tumours): significantly enhanced tumour cell killing by radiotherapy; single agent cell kill (UT-SCC-74B tumours; [10]): 55.9 ± 1.1%; survival (time to RTV^4) vs radiation alone [6]: significantly increased survival compared to radiation alone; AUC [7]: 1820 µM·h; T1/2 [7]: 1.05 h; Cmax [7]: 3640 µM
O=[N+]([O-])c1nccn1CS(=O)(=O)NCCOP(=O)(O)O [Compound 9] |  |  |  |  |  |  |  |  |  |  |  |  |  | Sensitisation Ratio (HCT116/54C tumours): 6.22; enhancement of tumour killing of radiotherapy (RAD vs drug + RAD) (HCT116/54C tumours): significantly enhanced the tumour killing of radiotherapy; single agent cell kill (HCT116/54C tumours; [10]): 65.7 ± 8.2%; Sensitisation Ratio (UT-SCC-74B tumours): 9.64; enhancement of tumour cell killing by radiotherapy (RAD vs drug + RAD) (UT-SCC-74B tumours): significantly enhanced tumour cell killing by radiotherapy; AUC [7]: 550 µM·h; T1/2 [7]: 2.33 h; Cmax [7]: 920 µM
O=[N+]([O-])c1nccn1CCS(=O)(=O)NCC(O)CO (stereo not shown) [Compound 15, N-(2,3-Dihydroxypropyl)-2-(2-nitro-1H-imidazol-1-yl)ethane-1-sulfonamide] | 99.9 | 120 to 123 |  | 7.3 ± 0.9 | > 25 | >3.4 | 84.3 (≈ 24.8 mg/mL) | >1.9 | 12.8 ± 4.4 | > 25 |  |  |  | 
O=[N+]([O-])c1nccn1CS(=O)(=O)NCCO [Compound 5] |  |  | 1.72 ± 0.06 | 0.23 ± 0.01 | 2.3 ± 0.2 | 10.0 |  | >21 | 0.29 ± 0.02 | > 6.2 | 0.24 ± 0.04 | 4.3 ± 0.8 | 17.7 | aqueous solubility [5]: 18 mM (≈ 4.5 mg/mL)
O=[N+]([O-])c1cncn1CCS(=O)(=O)NCCN1CCOCC1 [Compound 16, N-(2-Morpholinoethyl)-2-(5-nitro-1H-imidazol-1-yl)ethane-1-sulfonamide] | 99.9 |  | 1.31 ± 0.01 | 6.1 ± 0.8 | > 16 | >2.6 | 83 (≈ 27.7 mg/mL) | 1.0 | 12.9 ± 0.9 | 12.8 ± 1.5 | 10.3 ± 2.6 | 14.1 ± 2.1 | 1.4 | 
